Source: paper PMC5010932 (Molecular cancer therapeutics, 2016)
pIC50: −log10 of the molar value.

Target: NAMPT (Homo sapiens, UniProt P43490)
Experiment: cell-free coupled-enzyme colorimetric assay with recombinant NAMPT
Format: biochemical

Chain of NAMPT (P43490 whole entry): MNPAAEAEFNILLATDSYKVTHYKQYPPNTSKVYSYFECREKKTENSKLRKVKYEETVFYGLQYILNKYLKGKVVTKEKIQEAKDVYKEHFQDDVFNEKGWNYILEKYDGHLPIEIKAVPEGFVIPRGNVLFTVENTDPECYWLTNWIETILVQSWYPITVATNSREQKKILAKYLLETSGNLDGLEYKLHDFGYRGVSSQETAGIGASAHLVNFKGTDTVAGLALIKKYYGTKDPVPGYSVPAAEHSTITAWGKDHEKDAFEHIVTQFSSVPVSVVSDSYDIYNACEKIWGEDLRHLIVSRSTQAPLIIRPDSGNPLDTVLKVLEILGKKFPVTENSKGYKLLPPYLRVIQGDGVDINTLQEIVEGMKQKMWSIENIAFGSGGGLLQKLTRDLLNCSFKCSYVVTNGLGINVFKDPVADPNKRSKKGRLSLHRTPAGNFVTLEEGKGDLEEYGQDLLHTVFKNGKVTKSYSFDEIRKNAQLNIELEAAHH

## Nc1ccc(/C=C/C(=O)NCc2cc3cc(-c4ccc(C(=O)N5CCC(F)(F)CC5)cc4)cc(-c4ccc(F)cc4)c3o2)cn1 [KPT-9274]
  pIC50: ~6.92
